Assay results taken from article PMC3568910, “P2X7 Receptor Activation Induces Reactive Oxygen Species Formation and Cell Death in Murine EOC13 Microglia” (Mediators of Inflammation, 2013).
Values joined by “and” are separate entries in the source; they are usually repeats but may differ in a detail not shown here. Equal values may be shown once. “Also recorded” adds a separate entry of the source. Read-outs that look alike come from different tables or passages of the source. Values belong to the molecule of their own block, whether it stands above or below them.

Experiments:
P2X7 [1] = biological target: T1, P2X7 (Mus musculus, UniProt Q9Z1M0); test: Fixed-time ethidium+ uptake assay (flow cytometry) in J774 macrophage cells; format: cell-based, murine; details: for ethidium+ uptake compared to absence of nucleotide: 5 min
T1 construct: endogenous in cells; host or cells: EOC13 murine microglial cell line
T1 sequence (Q9Z1M0 1-595): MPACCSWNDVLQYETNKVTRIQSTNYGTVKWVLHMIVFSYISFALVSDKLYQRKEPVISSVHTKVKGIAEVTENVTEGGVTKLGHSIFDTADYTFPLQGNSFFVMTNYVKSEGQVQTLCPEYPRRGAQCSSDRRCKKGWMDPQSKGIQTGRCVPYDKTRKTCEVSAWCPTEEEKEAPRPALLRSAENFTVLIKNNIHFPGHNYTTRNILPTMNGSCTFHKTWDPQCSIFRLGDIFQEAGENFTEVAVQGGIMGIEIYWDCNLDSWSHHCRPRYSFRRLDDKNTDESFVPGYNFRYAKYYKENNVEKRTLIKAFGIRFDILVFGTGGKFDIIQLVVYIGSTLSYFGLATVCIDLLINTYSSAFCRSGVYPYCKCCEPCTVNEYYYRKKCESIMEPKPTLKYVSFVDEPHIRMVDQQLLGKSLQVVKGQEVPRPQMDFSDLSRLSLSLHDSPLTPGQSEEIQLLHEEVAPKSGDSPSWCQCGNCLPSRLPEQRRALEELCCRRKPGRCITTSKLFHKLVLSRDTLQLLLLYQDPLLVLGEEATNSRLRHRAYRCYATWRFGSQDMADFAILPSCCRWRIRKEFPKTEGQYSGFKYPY

P2X7 [2] = biological target: T1, P2X7; test: Fixed-time ethidium+ uptake assay (flow cytometry) in EOC13 microglial cells; format: cell-based, murine; details: for impairment of ATP-induced ethidium+ uptake: 15 min preincubation
EOC13 cells [3] = test: cells; format: cell-based
Procedure: (§1) Following the 24 h incubations, cells were harvested from wells using 0.05% trypsin (5 min, 37°C) and washed once with Annexin-V binding medium (NaCl medium containing 5 mM CaCl2). Cells were then incubated with Annexin-V binding medium containing Annexin-V-Fluorescein and 7AAD at room temperature protected from light for 15 min. […] Quadrant markers were used to determine the percentage of Annexin-V^+/7AAD^−, Annexin-V^−/7AAD^+, and Annexin-V^+/7AAD^+ cells. In some experiments, cells prior to harvesting were visualised by DIC imaging to examine cell morphology, and DIC images captured as outlined in Section 2.8.

EOC13 cells [4] = test system: EOC13 cells
EOC13 cells [5] = test: NO formation assay (DAF-FM DA, flow cytometry) in EOC13 cells; format: cell-based, murine
Excerpt: The medium was removed, and the cells were washed once.

P2X7 [6] = test system: P2X7; set-up: method as in PMID 18657557; details: read-out: half maximal effective concentration (EC50) of ATP for P2X7 activation; cited from earlier work
P2X7 [7] = biological target: T1, P2X7; test: Fixed-time YO-PRO-1 2+ uptake assay (flow cytometry) in EOC13 microglial cells; format: cell-based, murine; details: 10 μM
EOC13 cells [8] = test: Cell viability assessed by forward and side scatter (gated viable cells); format: cell-based, murine; details: for cell viability (forward and side scatter): 10 μM; for reduction of the amount of gated viable cells: ethidium+ uptake assay
EOC13 cells [9] = test: Cell morphology by DIC imaging; format: cell-based, murine
Procedure: as §1

EOC13 cells [10] = test: cells; details: Mus musculus, read-out: inhibition of ATP-induced ROS formation, EOC13 cells, 40 mM NAC, 30 min preincubation, 1.4 mM ATP, NaCl medium
[11] = read-out: IC50 for impairment of 1 mM ATP-induced ethidium+ uptake, J774 cells, NaCl medium, 15 min preincubation, 1 mM ATP 5 min, 37°C
[12] = EOC13 cells, antagonist 30 μM, 1 mM ATP

Molecule: 2′(3′)-O-(4-benzoylbenzoyl) ATP [BzATP]
ethidium+ uptake compared to absence of nucleotide (P2X7 [1]; J774 cells, 0.1 mM BzATP): induced significant ethidium^+ uptake
ethidium+ uptake compared to absence of nucleotide (P2X7 [2]; EOC13 cells, 0.1 mM BzATP, 5 min): induce significant ethidium^+ uptake

Molecule: Nc1ncnc2c1ncn2[C@@H]1O[C@H](COP(=O)(O)OP(=O)(O)OP(=O)(O)O)[C@@H](O)[C@H]1O [ATP, adenosine-5′-triphosphate]
duration of transient ATP incubation giving significant cell death (EOC13 cells [3]; EOC13 cells, 2 mM ATP, then fresh medium 24 h): 30 or 60 min but not 15 min and 30–60 but not 15 min
ATP concentrations giving significantly higher total cell death than absence of ATP (EOC13 cells [3]; EOC13 cells, complete DMEM medium, 24 h): 2 or 3 mM ATP but not 1 mM ATP and 2 or 3 but not 1 mM ATP
ROS formation compared to absence of ATP (EOC13 cells [4]; 575 μM ATP4- (1.4 or 2 mM ATP), NaCl medium in absence and presence of 1 mM Ca2+): induced significant ROS formation
ROS formation compared to absence of ATP (EOC13 cells [4]; 1.4 mM ATP, NaCl and KCl media): induced significant ROS formation
ROS formation compared to absence of ATP (EOC13 cells [4]; 1.4 mM ATP, NaCl medium, 15 min (NAC experiment control)): induced significant ROS formation
ROS formation compared to absence of ATP (EOC13 cells [4]; 1.4 mM ATP, absence and presence of 100 μM EGTA): significant but similar amounts of ROS formation
MFI of ROS formation (EOC13 cells [4]; 2 mM ATP, NaCl medium with 1 mM Ca2+, 15 min, absence of ATP 5.18 ± 0.06): 16.3 ± 0.6
ATP concentrations inducing significant ROS formation (EOC13 cells [4]; complete DMEM medium, 15 min): 2 or 3 but not 1 mM ATP
NO formation compared to absence of ATP (EOC13 cells [5]; 1.4 mM ATP, 15 min, NaCl medium): induced significant NO formation
EC50 (P2X7 [6]): 100 to 300 µM
ethidium+ uptake compared to absence of nucleotide (P2X7 [1]; J774 cells, 1 mM ATP): induced significant ethidium^+ uptake
ethidium+ uptake compared to absence of nucleotide (P2X7 [2]; EOC13 cells, 1 mM ATP, 5 min): induce significant ethidium^+ uptake
EC50 (P2X7 [2]; EOC13 cells, NaCl medium, 5 min, 37°C, read-out: EC50 for induction of ethidium+ uptake): ~130 µM and 130 µM

Molecule: O=C(CC12CC3CC(CC(C3)C1)C2)Nc1cccc2nc(NCCNCCO)ccc12 [AZ10606120]
inhibition of ATP-induced ROS formation (EOC13 cells [4]; 10 μM, 15 min preincubation, 2 mM ATP, NaCl medium with 1 mM Ca2+): complete inhibition; also recorded: completely impaired
inhibition of ATP-induced ROS formation (EOC13 cells [4]; 10 μM, 15 min preincubation, 2 mM ATP, complete DMEM medium): completely inhibited
effect on basal ROS formation (EOC13 cells [4]; 10 μM, absence of ATP): did not significantly alter
inhibition of ATP-induced NO formation (EOC13 cells [5]; 10 μM, 15 min preincubation, 1.4 mM ATP): 82 ± 11%
effect on basal NO formation (EOC13 cells [5]; 10 μM, absence of ATP): did not significantly alter
inhibition of ATP-induced ethidium+ uptake (P2X7 [1]; J774 cells, antagonist 10 μM, 1 mM ATP): completely inhibited
IC50 (P2X7 [1]; [11]): 1 ± 0.1 µM
inhibition of ATP-induced YO-PRO-1 2+ uptake (P2X7 [7]; 15 min preincubation, 1 mM ATP): complete inhibition
effect on basal YO-PRO-1 2+ uptake (P2X7 [7]; absence of ATP): did not significantly alter
cell viability (forward and side scatter) (EOC13 cells [8]; NO assay): did not significantly alter
cell viability (forward and side scatter) (EOC13 cells [8]; ROS assay): did not significantly alter

Molecule: CCOc1ccc(Nc2ccc(/C(=C3C=C/C(=[N+](/CC)Cc4cccc(S(=O)(=O)[O-])c4)C=C/3C)c3ccc(N(CC)Cc4cccc(S(=O)(=O)O)c4)cc3C)cc2)cc1 [BBG, Brilliant Blue G]
IC50 (P2X7 [1]): 1.8 ± 0.2 µM
type of antagonism at the ATP concentration used (P2X7 [1]; J774 cells, 1 mM ATP): partial antagonists
impairment of ATP-induced ethidium+ uptake (P2X7 [2]; [12]): 75 ± 2%

Molecule: c1ccc2c(c1)[I+]c1ccccc1-2 [DPI, diphenyleneiodonium]
cell death on preincubation (EOC13 cells [4]; 5–40 μM DPI, 30 min preincubation, data not shown): high amounts of cell death; also recorded: induced the death of EOC13 microglia

Molecule: CC(=O)N[C@@H](CS)C(=O)O [NAC, N-acetyl-L-cysteine]
effect on percentage of ATP-induced cell death (EOC13 cells [3]; EOC13 cells, 40 mM NAC, 75 and 30 min preincubation followed by 15 and 60 min 2 mM ATP, respectively): had no effect
inhibition at 40000 µM (EOC13 cells [3]; Mus musculus, read-out: inhibition of ATP-induced cell death): 99 ± 6%
inhibition of ATP-induced ROS formation (EOC13 cells [4]; 40 mM NAC, 30 min preincubation, 1.4 mM ATP, NaCl medium): 74%
effect on ATP-associated morphological changes (DIC) (EOC13 cells [9]; 40 mM NAC 90 min, 2 mM ATP final 45 min, then 24 h): prevented the morphological changes associated with ATP incubation
effect on cell morphology (DIC) (EOC13 cells [9]; ROS assay conditions, 40 mM NAC with or without 1.4 mM ATP): not altered by NAC
effect on cell morphology (DIC), NAC alone (EOC13 cells [9]; cell death assay conditions, 40 mM NAC 90 min, then 24 h): no effect on cell morphology
reduction of the amount of gated viable cells (EOC13 cells [8]; incubation with 40 mM NAC and ATP together, not either compound alone): ~ 40%
inhibition at 40000 µM (EOC13 cells [10]): 73.7 ± 0.3%
inhibition at 40000 µM (P2X7 [2]; P2X7, read-out: inhibition of ATP-induced ethidium+ uptake (pore formation)): 30 ± 2%

Further lines, with some results ahead:

inhibition of ATP-induced ethidium+ uptake (P2X7 [1]; J774 cells, antagonist 100 μM, 1 mM ATP): completely inhibited
IC50 (P2X7 [1]; [11]): 7.9 ± 0.4 µM
impairment of ATP-induced ethidium+ uptake (P2X7 [2]; EOC13 cells, antagonist 100 μM, 1 mM ATP): 90 ± 1%
Molecule: Clc1cccc(-c2nnnn2Cc2cccnc2)c1Cl [A438079]

type of antagonism at the ATP concentration used (P2X7 [1]; J774 cells, 1 mM ATP): partial antagonists
IC50 (P2X7 [1]; [11]): 1.5 ± 0.1 µM
effect on basal ethidium+ uptake (P2X7 [2]; EOC13 cells, absence of ATP, antagonist at concentration used (10-100 μM)): significantly altered
impairment of ATP-induced ethidium+ uptake (P2X7 [2]; [12]): 99 ± 1%
Molecule: O=C1CSC(=O)N1C(CCc1ccncc1)COc1ccc(-c2cccc([N+](=O)[O-])c2)cc1 (centres unmarked) [AZ11645373]
reduction of the amount of gated viable cells (EOC13 cells [8]; 30 μM): ~ 30%
